Reference: patent publication US5532382A, “Benzothiophenes substituted at the 3-carbonyl” (Eli Lilly and Company, priority 1995, dated 1996)

What follows are compounds tested on MCII cells (assay: MCII MAST CELL TOXICITY ASSAY (XTT)). Conditions: XTT formazan, 37° C. 4-12 hours; read-out: MCII Mast Cell Toxicity IC50.
Assay type: cell-based, mouse
Text: MCII MAST CELL TOXICITY ASSAY
This toxicity assay is run in parallel with the MCII mast cell LTC4 assay and serves as an indicator of compound effects on the viability and metabolic activity of the MCII cells. This "toxicity" assay is based on the ability of dehydrogenase enzymes present in viable metabolically active cells to bioreduce the tetrazolium salt XTT yielding a colored, water soluble formazan product. (see, Roehm et al.) An improved colorimetric assay for cell proliferation and viability utilizing the tetrazolium salt XTT. J. Immunol. Methods 142:257-65 (1991).
A duplicate polystyrene 96-well tissue culture plate (Costar) is set up with sensitized MCII cells, EM95 ascites, media and dilutions of the test compound as described above. The complete media is supplemented with concanavalin A induced culture supernatants from the mouse helper T cell clone D10.G4, as a source of mast cell growth factors.
Wells of the toxicity assay Elate are pulsed with 25 μl XTT (Sigma) plus phenazine methosulfate (Aldrich) giving a final concentration of 0.2 mg/ml XTT and 25 μM phenazine methosulfate. The plates are incubated at 37° C. in 10% CO2 for 4-12 hours and then production of the XTT formazan product determined by measuring the optical density of the wells at a wavelength of 450 nm. The positive control on each plate is stimulated MCII cells with dimethyl sulfoxide vehicle alone and the negative control is the same reaction mixture without cells. The background negative control value is subtracted from experimental and positive control values and the data are reported as percent of positive control.

SMILES | CC50 [µM]
O=C(c1ccccc1)c1c(-c2ccc(O)cc2)sc2cc(O)ccc12 [Compound A] | 0.3
Oc1ccc(-c2cc3ccc(O)cc3s2)cc1 [Compound B] | < 10
O=C(c1ccc(-c2ccccc2)cc1)c1c(-c2ccc(O)cc2)sc2cc(O)ccc12 [Example 1, 6-hydroxyphenyl-2-(p-hydroxyphenyl)-(benzo(B)thien-3-yl)(p-phenyl)phenyl methanone] | > 10
O=C(c1cccc2ccccc12)c1c(-c2ccc(O)cc2)sc2cc(O)ccc12 [Example 2, 6-hydroxyphenyl-2-(p-hydroxyphenyl)-(benzo(B)thien-3-yl) (α-naphyl)methanone] | > 10
O=C(c1ccc2ccccc2c1)c1c(-c2ccc(O)cc2)sc2cc(O)ccc12 [Example 3, 6-hydroxyphenl-2-(p-hydroxyphenyl)-(benzo(B)thien-3-yl) (β-napthyl)methanone] | > 10

Each compound was assayed on production of thromboxane B2 (T×B2) in plasma-depleted blood (assay: Inhibition of Eicosanoid Production by Plasma-depleted Blood: TxB2). Conditions: Homo sapiens, read-out: Plasma DPLTD Blood TxB2 IC50.
Assay type: cell-based
Procedure: Inhibition of Eicosanoid Production by Plasma-depleted Blood.
Compounds are evaluated for their ability to inhibit production of leukotriene B4 (LTB4) and thromboxane B2 (T×B2) upon stimulation of human plasma-depleted blood with formyl-methionyl-leucyl-phenylalanine (FMLP) and thrombin. LTB4 is produced by neutrophils and T×B2 by platelets stimulated at their respective receptors with FMLP and thrombin. The assay is carried out in 1 ml deep well polypropylene 96-well plates (Beckman). For the test, ten ml of blood is collected in EDTA at a final concentration of 1.5 mg/ml. Then, 40 ml glucose phosphate buffer containing 0.1% gelatin is added and the suspension centrifuged at 900 g for 10 minutes at room temperature. The supernatant is discarded and the cells washed once with 50 ml buffer before resuspending them in 50 ml Krebs-Ringers-Henseleit Buffer containing 0.1% gelatin, 1 mM […], 1.1 mM MgCl2 (KRH buffer). Working solutions of test compounds are made by dissolving the material in DMSO at 10 mM and diluting with appropriate amounts of KRH buffer. An agonist solution is made containing 1 μM FMLP (sigma) and 10 units/ml of thrombin in KRH buffer (Enzyme Research Labs). […] The amount of LTB4 and T×B2 produced is determined by the use of a competetive enzyme immunoassay using commercial reagents from Cayman Chemical.

SMILES | IC50 [µM]
O=C(c1ccc(O)cc1)c1c(-c2ccc(O)cc2)sc2cc(O)ccc12 [Compound D] | > 9.8
